For experiment [1], the system named is ROCKII Ser^1366 phosphorylation. The experiment in a line: Western blotting of serum-starved mouse embryonic fibroblasts stimulated with nocodazole with or without Y27632. The experiment is classed as cell-based. The procedure:
FIGS. 6(A) and 6(B) respectively illustrate the Western blotting patterns showing (A) antibody-I and (B) antibody-II against the protein extract from normal mouse embryonic fibroblasts (MEFs) stimulated with nocodazole(10 μM) in present or absent of Y27632 (10 μM).
In addition to the above human cell experiments, the level of Ser^1366 phosphorylation of ROCKII in animal cells is also researched in the present invention.
A general note: A western blot detects proteins with antibodies after separation by electrophoresis.

Experiment [2] addresses ROCKII Ser^1366 phosphorylation (Bos taurus, UniProt Q28021). The experiment in a line: Western blotting of Ser1366 phosphorylated myc-ROCKII from treated HEK293T cells. The conditions noted are these: Y27632 20 μM for 2 hours, probed with antibody-II. Format: cell-based, human.
Protocol: myc-ROCKII-expressing cells were harvested in an immunoprecipitation (IP) buffer (1% NP-40, 5% glycerol, 50 mM Tris/HCl, pH 7.4, 150 mM NaCl, 1 mM PMSF (phenylmethylsulfonyl fluoride), and protease inhibitor cocktail). The lysates after pre-clearance were incubated with anti-myc antibody at 4° C. for 60 minutes, and then precipitated with protein A-agarose beads for 30 minutes. The immunoprecipitates were preincubated with or without 100 μM of Y27632 (ROCK inhibitor), which was followed by incubation with a IX kinase buffer (50 mM Tris/HCl, pH 7.4, 10 mM MgCl2, 1 mM EGTA (ethylene glycol tetraacetic acid), 0.5 mM DTT (dithiothreitol), 5 mM NaF, and 0.1 mM Na3VO4, 20 μM ATP) containing 5 μCi of [γ-^32p]ATP at 30° C. for 20 minutes. The immunoprecipitates (controls) from non-transfected cells were used backgrounds. The protein level of myc-ROCKII was detected by Western blotting with anti-myc antibody known by the skilled person in the art.
Another experiment deals with myc-ROCKII (Bos taurus, UniProt Q28021). The experiment in a line: in vitro kinase reaction of immunoprecipitated myc-ROCKII with [γ-32P]ATP (autophosphorylation). The experiment is classed as biochemical. The conditions noted are these: immunoprecipitates preincubated with 100 μM Y27632; 30° C., 20 minutes.
Sequence of myc-ROCKII (Q28021 6-1388): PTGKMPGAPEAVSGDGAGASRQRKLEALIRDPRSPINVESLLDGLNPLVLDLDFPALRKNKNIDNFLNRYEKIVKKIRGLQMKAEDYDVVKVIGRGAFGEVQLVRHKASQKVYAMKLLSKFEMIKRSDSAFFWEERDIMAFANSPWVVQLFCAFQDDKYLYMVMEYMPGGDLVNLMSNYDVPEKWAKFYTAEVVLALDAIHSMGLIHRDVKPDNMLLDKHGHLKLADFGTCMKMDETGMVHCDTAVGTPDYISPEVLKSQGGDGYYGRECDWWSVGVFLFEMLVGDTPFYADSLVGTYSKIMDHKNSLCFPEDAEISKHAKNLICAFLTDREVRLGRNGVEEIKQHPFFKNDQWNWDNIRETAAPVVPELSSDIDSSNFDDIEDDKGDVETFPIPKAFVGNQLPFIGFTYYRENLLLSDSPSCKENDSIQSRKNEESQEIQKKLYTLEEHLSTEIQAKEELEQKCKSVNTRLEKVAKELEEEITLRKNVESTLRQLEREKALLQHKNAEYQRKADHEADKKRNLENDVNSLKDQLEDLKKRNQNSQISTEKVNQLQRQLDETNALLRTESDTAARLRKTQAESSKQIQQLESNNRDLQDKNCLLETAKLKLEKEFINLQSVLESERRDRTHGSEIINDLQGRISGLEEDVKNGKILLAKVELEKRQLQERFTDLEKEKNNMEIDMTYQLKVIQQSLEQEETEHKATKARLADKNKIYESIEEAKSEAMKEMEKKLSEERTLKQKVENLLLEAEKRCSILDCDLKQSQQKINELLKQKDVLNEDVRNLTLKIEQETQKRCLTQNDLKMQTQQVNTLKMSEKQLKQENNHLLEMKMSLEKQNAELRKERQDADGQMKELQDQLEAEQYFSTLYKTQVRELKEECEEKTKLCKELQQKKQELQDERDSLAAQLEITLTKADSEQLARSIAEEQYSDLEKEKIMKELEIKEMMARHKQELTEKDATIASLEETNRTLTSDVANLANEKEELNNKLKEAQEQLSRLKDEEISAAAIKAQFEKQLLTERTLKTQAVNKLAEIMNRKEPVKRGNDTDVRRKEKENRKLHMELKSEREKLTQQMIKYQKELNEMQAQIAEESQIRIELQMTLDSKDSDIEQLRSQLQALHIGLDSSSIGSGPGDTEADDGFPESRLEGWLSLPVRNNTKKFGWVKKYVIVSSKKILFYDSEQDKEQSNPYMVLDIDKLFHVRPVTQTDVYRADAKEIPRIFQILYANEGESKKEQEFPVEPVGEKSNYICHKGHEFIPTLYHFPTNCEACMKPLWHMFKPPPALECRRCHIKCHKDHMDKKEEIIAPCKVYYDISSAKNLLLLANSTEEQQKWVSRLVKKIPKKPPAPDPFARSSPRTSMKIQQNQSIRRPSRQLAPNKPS
Experiment [3] relates to Ser^1333 phosphorylated flag-ROCKI. Briefly: Western blotting with anti-pSer1333 ROCKI antibody, with peptide neutralization. The note with it: peptide 0.2 μg/ml, antibody 1 μg/ml. Format: binding. The procedure: FIG. 2(B) illustrates the Western blotting pattern showing anti-pSer^1333 ROCKI antibody-I against the phosphorylated ROCKI. flag-ROCKI protein is obtained with extraction after the WT or S1333A mutant flag-ROCKI expression constructs are respectively transfected to […] cells and immunoprecipitated using anti-flag antibody, and Ser^1333 phosphorylation of flag-ROCKI is probed with antibody-I (1 μg/ml) with or without the competition of phosphorylated peptide-Ia (0.2 μg/ml).
myc-ROCKII-expressing cells were harvested in an immunoprecipitation (IP) buffer (1% NP-40, 5% glycerol, 50 mM Tris/HCl, pH 7.4, 150 mM NaCl, 1 mM PMSF (phenylmethylsulfonyl fluoride), and protease inhibitor cocktail). The lysates after pre-clearance were incubated with anti-myc antibody at 4° C. for 60 minutes, and then precipitated with protein A-agarose beads for 30 minutes. The immunoprecipitates were preincubated with or without 100 μM of Y27632 (ROCK inhibitor), which was followed by incubation with a IX kinase buffer (50 mM Tris/HCl, pH 7.4, 10 mM MgCl2, 1 mM EGTA (ethylene glycol tetraacetic acid), 0.5 mM DTT (dithiothreitol), 5 mM NaF, and 0.1 mM Na3VO4, 20 μM ATP) containing 5 μCi of [γ-^32p]ATP at 30° C. for 20 minutes. […] The protein level of myc-ROCKII was detected by Western blotting with anti-myc antibody known by the skilled person in the art. […]

Experiment [4] relates to Ser^1366 phosphorylated myc-ROCKII. The experiment in a line: Western blotting with anti-pSer1366 ROCKII antibody, with peptide neutralization and λPPase treatment. The experiment is classed as binding. The conditions noted are these: peptide 0.2 μg/ml, antibody 1 μg/ml. The procedure:
FIG. 2(A) illustrates the Western blotting pattern showing anti-pSer^1366 ROCKII antibody-II against the phosphorylated ROCKII. myc-ROCKII protein is obtained with extraction after the WT or S1366A mutant myc-ROCKII expression constructs are respectively transfected into HEK-293T cells and immunoprecipitated using anti-myc antibody, and Ser^1366 phosphorylation of myc-ROCKII is probed with antibody-II (1 μg/ml) with or without the competition of phosphorylated peptide-IIa (0.2 μg/ml).
FIG. 3 illustrates the Western blotting pattern showing the signal of immunoprecipitated WT myc-ROCKII with or without λ protein phosphatase (λPPase) at 30° C. for 20 minutes treatment probed with antibody-II
myc-ROCKII-expressing cells were harvested in an immunoprecipitation (IP) buffer (1% NP-40, 5% glycerol, 50 mM Tris/HCl, pH 7.4, 150 mM NaCl, 1 mM PMSF (phenylmethylsulfonyl fluoride), and protease inhibitor cocktail). The lysates after pre-clearance were incubated with anti-myc antibody at 4° C. for 60 minutes, and then precipitated with protein A-agarose beads for 30 minutes. […] The protein level of myc-ROCKII was detected by Western blotting with anti-myc antibody known by the skilled person in the art. […]

The test system of experiment [5] is ROCKII Ser^1366 phosphorylation. Briefly: immunohistochemical staining of human breast tumor tissue with anti-pSer1366 ROCKII antibody and peptide competition. The conditions noted are these: antibody 5 μg/ml, peptide 0.5 μg/ml. From the text: FIG. 7 illustrates the immunohistochemistry images showing RCOKII Ser^1366 phosphorylation in human breast tumor tissues. The tumor part and non-tumor part breast tissues of from two breast cancer patients are sectioned, and probed with anti-pSer^1366 ROCKII antibody in the presence of phosphorylated peptide-lib and unphosphorylated peptide-IIa. The normal rabbit IgG is the control for negative reaction, and #1 is negative for lymph node and #2 is positive for lymph node.
The tumor part and the non-tumor part of the breast tissue blocks were embedded in Tissue-Tek OCT™ compound, snap-frozen, and sectioned into 5 μm cryosections. The sections were fixed with 4% (w/v) paraformaldehyde for 15 minutes and placed in boiling citrate buffer for 10 minutes. Endogenous peroxidase activity was quenched by 3% […] for 10 minutes and this was followed by incubation with 5.5% (v/v) normal goat serum in Tris-buffer saline containing 0.1% of Triton X-100 (TBST) for blocking. Sections were subsequently incubated with primary antibody against pSer^1366 ROCKII (1:200 dilution; 5 μg/ml) in the present or absence of the phosphopeptide or non-phosphopeptide (0.5 μg/ml). […]
Next, whether ROCKII Ser^1366 phosphorylation can be detected is determined by anti-pSer^1366 ROCKII antibody-II. […]

The mark [6] stands for this setting: MEFs serum-starved 24 hours, nocodazole 10 μM.

Square brackets hold non-standard residues; d marks the D form. Ends that are not written are not given here. pS = N[C@@H](COP(=O)(O)O)C(=O)O

Sequence of ROCKII Ser^1366 phosphorylation (Bos taurus, UniProt Q28021) (Q28021 6-1388): as above

For `C[C@@H](N)[C@H]1CC[C@H](C(=O)Nc2ccncc2)CC1` [Y27632], in experiment [1] (MEFs, nocodazole 10 μM plus Y27632 10 μM), the “enhanced phosphorylation signal (ROCKII Ser^1366, phospho-MLC) induced by nocodazole” value is listed as “disappeared”. Further, the “signal level of Ser^1366 phosphorylated myc-ROCKII” value in experiment [2] was “markedly decreased”. Besides, at myc-ROCKII, the “phosphorylation signal of radioactively labeled ROCKII” value was “abolished the phosphorylation signal”.
Turning to `COC(=O)Nc1nc2ccc(C(=O)c3cccs3)cc2[nH]1` [nocodazole], in experiment [1] (setting [6]), the “downstream phosphor-MLC signal regulated by ROCKII” value is reported as “markedly increased” and the “signal of ROCKII Ser^1366 phosphorylation” value was “enhanced”.
Turning to “N′-RASPRTLpSTRS-C′ (SEQ ID NO:4) (RASPRTL[pS]TRS) [peptide-Ib]”, in experiment [3], the “neutralization of the autophosphorylated signal of anti-pSer^1333 ROCKI antibody” value was “neutralized”.
Consider “N′-DPFARSSPRTpSMK-C′ (SEQ ID NO:6) (DPFARSSPRT[pS]MK) [peptide-lib]”, for which the “neutralization of the autophosphorylated signal of anti-pSer^1366 ROCKII antibody” value in experiment [4] is recorded as “neutralized”. Further, the “ROCKII Ser^1366 phosphorylation signal in IHC under peptide competition” value in experiment [5] is listed as “blocked”.

For the origin of these results see patent US9017952B2, “Reagents for probing ROCKs activation” (National Yang Ming University, priority 2012, dated 2015).
